Experimental data as given in patent US20060121449A1, “Method for selection of compounds which inhibit clonal cell growth and use thereof” (priority 2002, published 2006).
Entries after “also recorded” stand apart in the source; their conditions may differ.

What was measured:
[1] = system: spleen antibody producing cells against sheep red cells; assay: Jerne's test: haemolytic plaques of spleen cells after immunisation with sheep red cells (Exp 10); assay type: in vivo, mouse; settings: for Change of number of plaques (antibody producing cells), average and high doses: 8.4 μl 20 mM and 3.5 μl 200 mM s.c.; for Condition of the animals on injection days (day 0 to day 62): all animals, s.c. 2 μl 20 mM to 3.5 μl 200 mM, day = column head; for Plaque no. in 10 mill. cells: control 4689
Description: The same principle could be tested in animals using the classical Jerne's test. Shortly described: Mice were immunised with sheep red cells. At the same time subcutaneous injection with a clone inhibitor, e.g. 4-OH-OPB, was performed. After 5 days the spleen was squeezed and spleen-cells counted and mixed with agar medium, sheep red cells and complement. After a short time plaques appeared and were counted and percent of total number of spleen cells was calculated. […] Therefore, it is probable that it is only the reaction against the new immunogen that is affected. […] Only cells of the same specificity seemed to be the <> of clonal inhibition even if lots of other B-lymphocytes are present, but with other specificities. The only condition necessary seemed to be that affected cells should be located more than a certain distance from each other.
In order to examine the degree of diminishing cloning in the immune system, Jerne's test in mice may be suitable (Experiment 10). Sheep erythrocytes are injected into mice. A few days later cells from the spleen of the animals are studied. In experiment 10 the smallest dose was about 3.8 μM if 4-OH-OPB was solved in the extracellular fluid of the mouse. […] But there are indications that normal cells might tolerate higher doses than malignant cells. Therefore, it is thought that effective tumour inhibiting doses of 4-OH-OPB probably will affect the clonability of antibody producing cells in the spleen under or shortly after primary immunisation moderately, about 2 logs.
The test animals were 4 mice, white Bom/NMRI (Table 5). The drug that was tested in this experiment is 4-OH-OPB (Table 1-4). It is inhibiting Ehrlich ascites when injected together with the cells in peritoneum in a concentration of 4 μM or higher and clonal growth of BHK21/c13 and its polyoma virus transformed offspring, S100T1, in cell culture.
A section was performed; they were weighed and a search for tumour masses was undertaken without finding any. The spleens were removed and about half of it crushed in 0.5 ml Eagles for getting extracted, free spleen cells that were seeded in soft agar on top of a solid agar layer in a Petri dish of 8.5 cm in diameter. The agar layer with spleen cells also contained sheep red cells and complement was added to obtain hemolysis.
Animals were killed by cervical dislocation on day 62 and spleens were immediately put on cold Eagle's medium for transportation. It lasted about 5 hours before the agar dishes were ready for incubation in 5% CO2 and 37° C. However, the dishes from mouse #1 and #2 were too fluid in the top layers and developed two many plaques to be counted. Therefore, the next day, the second half of the two spleens from mouse #1 and #2 that were kept cold in the same medium were crushed in the same way and new dishes were prepared with less number of cells.

[2] = system: Ehrlich ascites cells injected subcutaneously; assay: Subcutaneously transplanted Ehrlich cells in mice, export of metastatic cells (Exp 9); settings: for Export (migration) of subcutaneously injected Ehrlich cells to peritoneum in treated animals / Solid tumours at subcutaneous injection sites: Exp 9; for Export (migration) of subcutaneously injected Ehrlich cells to peritoneum in treated animals: i.p. injections twice a week, untreated control developed ascites only
Description: This assay involves different numbers of Ehrlich carcinoma cells injected in six subcutaneous locations of mice that were treated by intraperitoneal injections of the compound tested, e.g. 4-OH-OPB (experiment number 9). […] When operating with different cell numbers in the different injection sites, the number of growing tumours indicated which cell number that is necessary for the development of tumours in treated or untreated animals.
Ehrlich ascites was stored in liquid nitrogen on serum with 10% DMSO. The ampoules were thawed in water of 37° C., diluted in serum, and pelleted by low speed centrifugation after the addition of 2 ml FBS, to remove DMSO.
The cells were diluted in volumes of 0.6 ml RPM (pH about 6.9) for each animal with no serum added. The 4-OH-OPB was injected intraperitonally twice a week, see Table 2.

[3] = Exp 10 animal 2, low: 2 μl 20 mM s.c.
[4] = Exp 10 animal 3, average: 8.4 μl 20 mM s.c.
[5] = Exp 10 animal 4, high: 3.5 μl 200 mM s.c.
[6] = Exp 9 mouse 1: 10.5 μl 0.2 M i.p. (est. extracell. conc. 281)
[7] = Exp 9 mouse 1: 10.5 μl 0.2 M i.p. twice a week (est. extracell. conc. 281)
[8] = Exp 9 mouse 3: 9.6 μl 20 mM i.p. (27.9)
[9] = Exp 9 mouse 3: 9.6 μl 20 mM i.p. twice a week (27.9)
[10] = Exp 9 mouse 4: 1.37 μl 20 mM i.p. (2.8)

CCCCC1(O)C(=O)N(c2ccccc2)N(c2ccc(O)cc2)C1=O (stereo not shown) [4-OH-OPB, 4-butyl-4-hydroxy-2(p-hydroxyphenyl)-1-phenyl-3,5-pyrazolidinedione]
Change of number of plaques, smallest dose ([1]; Exp 10, 2 μl 20 mM s.c.): did not significantly change the number of plaques
Change of number of plaques (antibody producing cells), average and high doses ([1]; Exp 10): did reduce the number significantly
Change of number of plaques (antibody producing cells), average and high doses ([1]; Exp 10, listed as 4-OH—OPB): OPB significantly reduced the number of anti-
Condition of the animals on injection days (day 0 to day 62) ([1]; Exp 10): all animals were clinically well
Condition of the animals on injection days (day 0 to day 62) ([1]; Exp 10, listed as 4-OH—OPB): all well at end
1. number of plaques [1, 3]: many
2. number of plaques ([1]; Exp 10 animal 2, low: 2 μl 20 mM s.c., 32.6 million cells on dish): 10218
Plaque no. in 10 mill. cells [1, 3]: 3134
1. number of plaques [1, 4]: 42
Spleen weight ([1]; Exp 10 animal 3, average: 8.4 μl 20 mM s.c. (est. max extracellular 19.6 μM)): 150 mg
Plaque no. in 10 mill. cells [1, 4]: 8.4
1. number of plaques [1, 5]: 0-2?
Spleen weight ([1]; Exp 10 animal 4, high: 3.5 μl 200 mM s.c. (est. max extracellular 67.7 μM)): 136 mg
Plaque no. in 10 mill. cells [1, 5]: <=0.23
Mouse weight after 2 months ([1]; Exp 10 mouse 2 (11.3 μg 4-OH-OPB/30 g)): 37.6 gram
Mouse weight after 2 months ([1]; Exp 10 mouse 3 (51.5 μg 4-OH-OPB/30 g)): 33.3 gram
Mouse weight after 2 months ([1]; Exp 10 mouse 4 (210.2 μg 4-OH-OPB/30 g)): 34 gram
Export (migration) of subcutaneously injected Ehrlich cells to peritoneum in treated animals [2]: did not get ascites with tumour cells, only solid tumours; also recorded: no spread of tumour cells from these subcutaneous injection sites were found in peritoneum; also recorded: effective in stopping migration of tumour cells to peritoneum; also recorded: None of the treated ones got ascites
Export (migration) of subcutaneously injected Ehrlich cells to peritoneum in treated animals ([2]; listed as 4-OH—OPB): Found inhibition on metastatic
Solid tumours at subcutaneous injection sites ([2]; the two mice receiving smaller doses): only one tumour
Solid tumours at subcutaneous injection sites ([2]; very high dose mouse, sites with 6250 and 31250 cells): two tumours of the abdominal wall
Toxic effects of the very high dose ([2]; Exp 9 mouse 1: 10.5 μl 0.2 M i.p.): caused adherences in peritoneum; also recorded: liver, spleen and possibly kidneys became affected by its toxicity; also recorded: died of haemorrhagic effusion in thorax
Day 21, pathology [2, 6]: Ascites
Pathology after 24 days [2, 6]: Ascites or thoracic fluid did not contain Ehrlich cells
Pathology after 24 days ([2]; Exp 9 mouse 1: 10.5 μl 0.2 M i.p. (est. extracell. conc. 281), listed as 4-OH—OPB): number developed solid tumours; also recorded: Toxic ascites and thoracic
Clinical status, day 14 [2, 7]: No Ehrlich
Day 3-7, clinical status [2, 7]: no tumour
Weight, day 18 ([2]; Exp 9 mouse 1: 10.5 μl 0.2 M i.p. twice a week, initial weight 26.2): 37.4 g
Animal weight after 24 days ([2]; Exp 9 mouse 1: 10.5 μl 0.2 M i.p., initial weight 26.2): 40.2 g
Day 21, pathology [2, 8]: Lens sized
Pathology after 24 days [2, 8]: Ascites or organ tumours were not found
Pathology after 24 days ([2]; Exp 9 mouse 3: 9.6 μl 20 mM i.p. (27.9), listed as 4-OH—OPB): Pea sized tumour in left
Clinical status, day 14 [2, 9]: No tumour
Clinical status, day 18 [2, 9]: No tumour
Animal weight after 24 days ([2]; Exp 9 mouse 3: 9.6 μl 20 mM i.p., initial weight 24.1): 25 g
Day 21, pathology [2, 10]: Small tumour
Pathology after 24 days [2, 10]: slightly observable tumour in the abdominal wall
Pathology after 24 days ([2]; Exp 9 mouse 4: 1.37 μl 20 mM i.p. (2.8), listed as 4-OH—OPB): days ago, now lens sized.
Animal weight after 24 days ([2]; Exp 9 mouse 4: 1.37 μl 20 mM i.p., initial weight 34.2): 33.5 g. Tumour as discovered 3
Estimated concentration in extracellular fluid at which serious toxicity occurs ([2]; extracellular fluid calculated as 2/7 of the animal weight): 280 µM
